In test [1] the test system is mice. In words: Head-twitch test (5-HTP-induced head-twitch response). It counts as in vivo. Conditions: oral, head twitches counted in a 2-minute period 30 min after 5-HTP 100 mg/kg ip, versus vehicle control. The procedure: The head-twitch response of mice is initiated by a variety of 5-HT mimetic drugs. The test was conducted in a manner similar to the procedure described by Heal, D.J., Philpot, J, O'Shaughnessy, K.M. and Davies, C.L.: The influence of central noradrenergic function on 5-HT-mediated head-twitch responses in mice: Possible implications for the actions of antidepressant drugs. Psychopharmacology 89: 414-420, 1986,
The head-twitch consisted of a characteristic rotation of the head, neck and shoulders of the mice. The test drug or vehicle was given by oral gavage. Thirty minutes later all animals were pretreated with carbidopa (25 mg/kg ip). Fifteen minutes following carbidopa administration, the mice were injected with 100 mg/kg ip of L-5-hydroxytryptophan (5-HTP). The animals were then left for 30 minutes before measurement of the head-twitch response in the following 2-minute period. For calculation of percent (%) response increase, the difference in drug head twitch number versus the control vehicle head twitch number is divided by the control head twitch and multiplied by 100.

The target of the next test is T1, MAO-A (Rattus norvegicus, UniProt P21396).
T1 construct: Rat liver mitochondrial membranes as the source of the enzyme; from tissue; host or cells: rat liver mitochondrial membranes
T1 sequence (P21396 1-526): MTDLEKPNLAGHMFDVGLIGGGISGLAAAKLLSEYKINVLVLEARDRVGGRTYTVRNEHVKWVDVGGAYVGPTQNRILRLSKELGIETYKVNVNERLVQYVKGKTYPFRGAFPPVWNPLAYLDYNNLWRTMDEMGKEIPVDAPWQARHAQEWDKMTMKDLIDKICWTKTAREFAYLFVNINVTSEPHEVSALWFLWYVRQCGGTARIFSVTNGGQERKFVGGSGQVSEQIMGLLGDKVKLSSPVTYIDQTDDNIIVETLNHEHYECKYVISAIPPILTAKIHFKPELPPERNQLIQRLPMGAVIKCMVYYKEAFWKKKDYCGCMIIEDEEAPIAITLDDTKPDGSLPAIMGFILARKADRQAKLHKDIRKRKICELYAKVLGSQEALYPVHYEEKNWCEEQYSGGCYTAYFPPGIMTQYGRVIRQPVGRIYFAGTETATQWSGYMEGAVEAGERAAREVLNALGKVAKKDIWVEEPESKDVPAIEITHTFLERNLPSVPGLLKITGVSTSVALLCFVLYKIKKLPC
Kind of test: MAO-A inhibiting activity in vitro, radioisotopic assay with [14C] serotonin. Conditions: Rat liver mitochondrial membranes, 300 nM deprenyl to block MAO-B, preincubation 60 minutes at 37°C. Type of test: biochemical. As to the method:
The MAO-A activities in vitro were measured using Rat liver mitochondrial membranes as the source of the enzyme, according to modified method of S. Otsuka & Y. Kobayashi. A Radioisotopic Assay for Monoamine Oxidase Determinations in Human Plasma. Biochem. Pharmacol. 13: 995-1006 (1964)
Rat liver mitochondrial membranes is preincubated with drug or vehicle, and subtype selective blocker (300 nM deprenyl to block the B type of MAO) for 60 minutes at 37°C in 100 mM KPO4 (pH 7.2). [^14C] Serotonin ([…]) is then added and incubated for 10 minutes. The reaction is stopped by the addition of 0.5 ml of 2M citric acid. Radioactive product is extracted into a toluene/ethyl acetate fluor and compared to control values by scintillation spectrophotometry in order to ascertain any interactions of test compounds with MAO-A.

Test [2] concerns mice. Kind of test: Behavior Despair (Forced Swimming) test, mice dosed ip. As to conditions: reduction in immobility time versus vehicle; dose 30 mg/kg (ip); one hour after dosing; 15-minute test period. It counts as in vivo. The procedure: (§1) Behavior Despair (Forced Swimming) test, a well known pharmacological screening method for depression, was conducted similar to the test described by Porsolt, R.D., Bertin, A. and Jalfre, M.: Behavior despair in mice: A preliminary screening test for antidepressants. Arch. Int. Pharmacodyn. Ther. 229: 327-336, 1977.
Mice were dosed intraperitoneally (ip) with either test compound or vehicle. One hour later each animal was placed in a 1500 mL glass beaker containing water at room temperature. Mice were kept in the water for a period of 15 minutes and the duration of immobility observed within the 15-minute test period was recorded. A mouse was judged to be immobile if it floated motionlessly in the water making only those movements necessary to keep its head above the water. For calculation of percent (%) reduction in immobility time, the difference in immobility time for control vehicle versus the drug is divided by the immobility time of the control vehicle and multiplied by 100.

In the next test the test system is Rats. In words: Behavior Despair (Forced Swimming) test, rats dosed po. It counts as in vivo. As to conditions: reduction in immobility time versus vehicle; dose 60 mg/kg (po); one hour after dosing; 4-minute test period. The procedure: as §1
Rats were pre-swam for 10 minute the day before the test in 4000 mL glass cylinders containing water at 25°C. On the following day, rats were dosed orally (po) with either test compound or vehicle. One hour later each animal was placed in the glass cylinder and, following a 2-minute pretest, immobility was recorded for a 4-minute test period. For calculation of percent (%) reduction in immobility time, the difference in immobility time for control vehicle versus the drug is divided by the immobility time of the control vehicle and multiplied by 100.

On to `NC(=O)OC[C@H]1Cc2ccccc2CN1` [Example 4, (R)-3-Carbamoyloxymethyl-1,2,3,4-tetrahydroisoquinoline], for which, in the test with mice [1] (dose 15 mg/kg), the “% Response Increase” value is listed as 258%. This compound gave an inhibition at 10 µM against MAO-A of 63.9%. With `CNC(=S)OC[C@@H]1Cc2ccccc2CN1` [Example 16, (S)-3-(N-Methylthiocarbamoyloxymethyl)-1,2,3,4-tetrahydroisoquinoline], the “% Reduction” value with mice [2] amounted to 56%. In the case of `NC(=O)OC[C@@H]1Cc2ccccc2CN1` [Example 3, (S)-3-Carbamoyloxymethyl-1,2,3,4-tetrahydroisoquinoline], the “% Response Increase” value with mice [1] (dose 1 mg/kg) was 238%. Also, the inhibition at 10 µM at MAO-A turned out to be 97.7%. Moreover, the “% Reduction” value with Rats was 83%. Take `NC(=O)OCC1Cc2ccccc2CN1` (racemic) [Example 5, (RS)-3-Carbamoyloxymethyl-1,2,3,4-tetrahydroisoquinoline]: the “% Response Increase” value in the test on mice [1] (dose 3 mg/kg) is 144%.

Regarding `CNC(=S)OC[C@@H]1Cc2ccccc2CN1C(=O)Nc1ccccc1` [Example 17, (S)-3-(N-Methyl-thiocarbamoyloxymethyl)-N-(anilinocarbonyl)-1,2,3,4-tetrahydroisoquinoline], the “% Reduction” value with mice [2] is given as 46%.

With `NC(=S)OCC1Cc2ccccc2CN1` (centres unmarked) [Example 14, 3-Thiocarbamoyloxymethyl-1,2,3,4-tetrahydroisoquinoline], in the test on mice [1] (dose 8 mg/kg), the “% Response Increase” value was 42%. On to `CNC(=S)OC[C@@H]1Cc2ccccc2CN1C` [Example 18, (S)-3-(N-Methylthiocarbamoyloxymethyl)-N-methyl-1,2,3,4-tetrahydroisoquinoline], for which the “% Reduction” value with mice [2] was 33%. On to `CN1Cc2ccccc2C[C@H]1COC(N)=O` [Example 8, (S)-3-Carbamoyloxymethyl-N-methyl-1,2,3,4-tetrahydroisoquinoline], for which the “% Response Increase” value in the test on mice [1] (dose 1 mg/kg) came out at 77%.

The values are drawn from patent EP1149079B1, “TETRAHYDRO ISOQUINO LINEALKANOL DERIVATIVES AND PHARMACEUTICAL COMPOSITIONS CONTAINING SAME” (SK Corporation, priority 1999, dated 2000).
